Test [1] concerns Vero monkey kidney cells. Briefly: Vero cell cytotoxicity (MTT assay, 72 h). The following applies: Primates, IC50 ± SD. Type of test: cell-based. Here is the method:
To assess the test compounds’ cytotoxicity, MTT assays were performed. The Vero cells and macrophages were cultivated for 24 h at 37 °C in RPMI 1640 media with 10% FBS and 5% CO2 in 96-well plates (5 × 10^3 cells/well/200 μL). Following a washing step with PBS, the cells were treated with test compounds at different concentrations (50, 25, 12.5, 6.25, 3.13, 1.65, and 0.75 μg /mL) in 10% FBS medium for 72 h. Negative control cells were only given media with 2% FBS and 1% DMSO. The cells were cultured for 4 h after the supernatant was disposed of, and 50 μL of RPMI 1640 media containing 14 μL MTT (5 mg/mL) was added. After removing the supernatant once again, 150 μL of DMSO was added. IC50 values were determined from three independent experiments.
For orientation: Tetrazolium assays rely on reduction of a dye to a coloured formazan, in cell work by metabolically active cells.

Test [2] deals with L. major promastigotes. Briefly: Leishmania major promastigote assay (MTT, 72 h). Type of test: cell-based. The protocol: (§1) Promastigotes of L. major were obtained from a patient (February 2016) and cultured at 26 °C in Schneider’s Drosophila medium (Invitrogen, Carlsbad, CA, USA) supplemented with 10% heat-inactivated fetal bovine serum (FBS, Invitrogen, USA) and antibiotics, with weekly transfers in a tissue culture flask. Promastigotes were cryopreserved in liquid nitrogen at a concentration of 3 × 10^6 parasites/mL. Virulent L. major parasites were maintained by serial passage in female BALB/c mice, achieved by injecting hind footpads with 1 × 10^6 stationary-phase promastigotes. Amastigotes were isolated from the mice after 8 weeks, then converted to promastigotes by cultivation at 26 °C in Schneider’s medium containing 10% FBS and antibiotics. Amastigote-derived promastigotes, which underwent several in vitro passages, were used for the infection studies. BALB/c mice (both male and female) were provided by the Pharmaceutical College, King Saud University, Kingdom of Saudi Arabia, and housed in specific pathogen-free conditions following the ethical guidelines of the Qassim University Research Ethics Committee (permission number: 20-03-20).
L. major promastigotes in the logarithmic phase were cultured in phenol-red-free RPMI 1640 medium (Invitrogen, USA) with 10% FBS in 96-well plates at 10^6 cells/mL (200 μL/well, counted with a hemocytometer). Test compounds were added at final concentrations of 50, 25, 12.5, 6.25, 3.13, 1.65, and 0.75 μg/mL. […] After incubation at 26 °C for 72 h, viable promastigotes were counted using an MTT colorimetric assay. The formed formazan was dissolved in a detergent and the absorbance was measured at 570 nm using an ELISA reader. IC50 values were derived from three independent experiments.

Test [3] relates to T. gondii RH strain tachyzoites. Briefly: Toxoplasma gondii cells drug testing assay (infection index in Vero cells, 72 h). Particulars: for IC50: Toxoplasma gondii, Vero, IC50 ± SD, three independent experiments, 72 h; for SI = selectivity index (Vero/T. gondii): ratio IC50 Vero / IC50 T. gondii. It counts as cell-based. The protocol: Cells of the Vero cell line (ATCC® CCL81™, Manassas, VA, USA) were used to cultivate T. gondii RH strain tachyzoites. Vero cells were maintained in complete RPMI 1640 medium (Thermo Fisher Scientific, Waltham, MA, USA). For cell cultivation, 96-well plates were prepared with 5 × 10^3 cells per well in 200 μL of RPMI 1640 medium, then incubated at 37 °C and 5% CO2 for 24 h. The medium was then removed, and cells were washed with phosphate-buffered saline (PBS). Next, RPMI 1640 medium with 2% FBS and parasites at a 5:1 parasite-to-cell ratio were added. After a 5 h incubation at 37 °C and 5% CO2, cells were washed with PBS and subjected to further treatments. […] After incubation at 37 °C and 5% CO2 for 72 h, cells were washed with PBS, fixed in 10% formalin, and stained with 1% toluidine blue. An inverted photomicroscope was used to assess cell infection and to determine the infection index (number of infected cells out of 200 counted cells). The inhibition percentage was calculated as follows:Inhibition (%) = [(I Control − I Experimental)/I Control] × 100 where “I Control” represents the infection index of untreated cells, and “I Experimental” represents the infection index of cells treated with test compounds. The effects of the compounds on parasite growth are expressed as IC50 values derived from three independent experiments.

In test [4] the test system is macrophages. Briefly: Macrophage cytotoxicity (MTT assay, 72 h). It counts as cell-based, BALB/c mice. The following applies: Mus musculus, IC50 ± SD. Here is the method:
Plates were incubated for 24 h at 37 °C in a 5% CO2 environment to allow infection and amastigote differentiation. Infected cells were then washed with PBS and overlaid with RPMI 1640 medium containing the test compounds at the same concentrations as applied for the experiments with promastigotes, followed by incubation at 37 °C and 5% CO2 for 72 h. […] The percentage of infected macrophages was determined microscopically after fixation, Giemsa staining, and medium removal. IC50 values were calculated from three independent experiments. To assess the test compounds’ cytotoxicity, MTT assays were performed. […] Negative control cells were only given media with 2% FBS and 1% DMSO. The cells were cultured for 4 h after the supernatant was disposed of, and 50 μL of RPMI 1640 media containing 14 μL MTT (5 mg/mL) was added. After removing the supernatant once again, 150 μL of DMSO was added. IC50 values were determined from three independent experiments.

The subject of test [5] is L. major amastigotes. Briefly: Leishmania major amastigotes in peritoneal macrophages (percentage of infected macrophages, 72 h). It counts as cell-based. The following applies: Macrophage, IC50 ± SD. Here is the method: as §1
Activity against amastigotes in macrophages was evaluated using peritoneal macrophages, which were harvested from 6–8-week-old BALB/c mice of different sex, and plated at 5 × 10^4 cells/well in 96-well plates containing phenol-red-free RPMI 1640 medium with 10% FBS. After 4 h at 37 °C and 5% CO2 to promote adhesion, cells were washed with PBS, and 200 μL of an L. major promastigote solution (10 promastigotes per macrophage) was added. Plates were incubated for 24 h at 37 °C in a 5% CO2 environment to allow infection and amastigote differentiation. Infected cells were then washed with PBS and overlaid with RPMI 1640 medium containing the test compounds at the same concentrations as applied for the experiments with promastigotes, followed by incubation at 37 °C and 5% CO2 for 72 h. […] IC50 values were calculated from three independent experiments.

Setting [6] is: Leishmania major, 72 h, IC50 ± SD, MTT.
[7] abbreviates: ratio IC50 macrophages / IC50 promastigotes.
[8] abbreviates: verbal statement in text on the L. major experiments.

Where only a bound is given, the exact number is not on record here.

The values below come from paper PMC11672724, “Antiparasitic Activities of Acyl Hydrazones from Cinnamaldehydes and Structurally Related Fragrances” (Antibiotics, 2024).

By IC50 is commonly meant the concentration at which inhibition is half-maximal. As to `C(=C\c1ccccc1)/C=N/Nc1ccccc1` [CPH, Cinnamaldehyde phenyl hydrazone, reference compound], the IC50 in test [1] was determined as 23.6 ± 3.9 µM; in test [2] (setting [6]) it was 83.7 ± 13.6 µM; in test [3] it was 12.9 ± 2.1 µM; in test [4], 78.4 ± 12.2 µM. In test [2] (setting [7]), the “SI (promastigotes) = selectivity index (macrophages/L. major promastigotes)” value (shortened to “SI (promastigotes) = selectivity index”) was 0.94. Further, the “SI = selectivity index (Vero/T. gondii)” value in test [3] is reported as 1.8.

With `O=C/C=C/c1ccccc1` [Cinnamaldehyde, (2E)-3-phenylprop-2-enal], the IC50 was over 151 µM in test [1]; over 151 µM in test [2] (Leishmania major; IC50 ± SD, MTT, 72 h); over 151 µM in test [3]; over 151 µM in test [4]; over 151 µM in test [5]. The “activity against T. gondii (in words)” value in test [3] was “inactive”.

For the molecule `O=C(N/N=C/C=C/c1ccccc1)c1cc2ccccc2cc1O` [Compound 2a], the IC50 in test [1] was 7.3 ± 0.9 µM; in test [2] (setting [6]), 16.8 ± 2.8 µM; in test [3], 0.63 ± 0.08 µM; in test [4], over 41.7 µM; in test [5], over 41.7 µM. In test [2] (setting [7]), the “SI (promastigotes) = selectivity index” value is over 2.5. In test [2] (setting [8]), the “activity against L. major promastigotes (in words)” value is “moderate activity”. The “SI = selectivity index (Vero/T. gondii)” value in test [3] is 11.5.

`CN(C)c1ccc(/C=C/C=N/NC(=O)c2cc3ccccc3cc2O)cc1` [Compound 2b]: the IC50 is 24.2 ± 2.7 µM in test [1]; over 36.7 µM in test [2] (setting [6]); 23.4 ± 3.9 µM in test [3]; over 36.7 µM in test [4]; over 36.7 µM in test [5]. In addition, the “SI = selectivity index (Vero/T. gondii)” value in test [3] is recorded as 1.0.

As for `O=C(N/N=C/C=C/c1ccccc1)c1ccccc1O` [Compound 2c], the IC50 is 19.5 ± 2.6 µM in test [1]; 47.7 ± 6.5 µM in test [2] (setting [6]); 1.1 ± 0.2 µM in test [3]; 43.6 ± 8.6 µM in test [4]; over 49.6 µM in test [5]. The “SI (promastigotes) = selectivity index” value in test [2] (setting [7]) came to 0.91. Besides, the “SI = selectivity index (Vero/T. gondii)” value in test [3] is 17.3.

With `CN(C)c1ccc(/C=C/C=N/NC(=O)c2ccccc2O)cc1` [Compound 2d, (E)-N′-(4-Dimethylaminocinnamylidene)-2-hydroxybenzoylhydrazide], the IC50 in test [1] is 22 ± 3 µM; in test [2] (setting [6]), over 42.7 µM; in test [3] it was 3.9 ± 0.5 µM; in test [4], over 42.7 µM; in test [5], over 42.7 µM. Moreover, the “activity against T. gondii (in words)” value in test [3] is listed as “reasonable activity”. The “SI = selectivity index (Vero/T. gondii)” value in test [3] was found to be 5.7.

As to `O=C(N/N=C/C=C/c1ccccc1)c1ccccc1F` [Compound 2g], the IC50 in test [1] was over 74.6 µM; in test [2] (setting [6]), over 74.6 µM; in test [3], 69.4 ± 10 µM; in test [4], over 74.6 µM; in test [5], over 74.6 µM.

`O=C(N/N=C/C=C/c1ccccc1)c1ccncc1` [Compound 2l]: the IC50 in test [1] is 51.3 ± 7.8 µM; in test [2] (setting [6]) it was 51.3 ± 9.3 µM; in test [3], 52.1 ± 8.3 µM; in test [4], over 52.5 µM; in test [5] it was over 52.5 µM. The “SI (promastigotes) = selectivity index” value in test [2] (setting [7]) was over 1.0. The “SI = selectivity index (Vero/T. gondii)” value in test [3] amounted to 0.99.

For `CN(C)c1ccc(/C=C/C=N/NC(=O)c2ccncc2)cc1` [Compound 2m], the IC50 in test [1] is 41.5 ± 7.2 µM; in test [2] (setting [6]) it was over 44.8 µM; in test [3], 31.6 ± 6.2 µM; in test [4], over 44.8 µM; in test [5], over 44.8 µM. In addition, the “SI = selectivity index (Vero/T. gondii)” value in test [3] came out at 1.3.

Take `CC(C)Cc1ccc(CC(C)/C=N/NC(=O)c2cc3ccccc3cc2O)cc1` (stereo not drawn) [Compound 3a, N′-2-Methyl-3-[4-(2-methylpropyl)phenyl]propanylidene-3-hydroxy-2-naphthoic hydrazide]: the IC50 was 41.3 ± 6.9 µM in test [1]; over 51.5 µM in test [2] (setting [6]); 46.9 ± 8.4 µM in test [3]; over 51.5 µM in test [4]; over 51.5 µM in test [5]. In addition, the “SI = selectivity index (Vero/T. gondii)” value in test [3] stood at 0.88.

As for `CC(C)Cc1ccc(CC(C)/C=N/NC(=O)c2cccc(F)c2)cc1` (stereo not drawn) [Compound 3e, N′-2-Methyl-3-[4-(2-methylpropyl)phenyl]propanylidene-3-fluorobenzoylhydrazide], the IC50 was 53.5 ± 8.5 µM in test [1]; over 58.8 µM in test [2] (setting [6]); 45.3 ± 6.9 µM in test [3]; over 58.8 µM in test [4]; over 58.8 µM in test [5]. Also, the “SI = selectivity index (Vero/T. gondii)” value in test [3] worked out at 1.2.

`CC(C)c1cccc(C(C)CC=NNC(=O)c2cc3ccccc3cc2O)c1` (stereo not drawn) [Compound 4a, N′-3-(3-Isopropylphenyl)butanylidene-3-hydroxy-2-naphthoic hydrazide]: the IC50 is 39.6 ± 4.8 µM in test [1]; 9.6 ± 2.4 µM in test [2] (IC50 ± SD, MTT, 72 h); under 10 µM in test [2] (setting [6]); 14.4 ± 2.1 µM in test [3]; over 53.4 µM in test [4]; over 53.4 µM in test [5]. For the same molecule, the “activity against L. major promastigotes (in words)” value in test [2] (setting [8]) is given as “moderate activity”. In addition, the “SI = selectivity index (Vero/T. gondii)” value in test [3] turned out to be 2.8.

For the molecule `CC(C)c1cccc(C(C)C/C=N/NC(=O)c2ccccc2O)c1` (stereo not drawn) [Compound 4b, N′-3-(3-Isopropylphenyl)butanylidene-2-hydroxybenzoylhydrazide], the IC50 turned out to be 19.2 ± 2.2 µM in test [1]; 39.5 ± 5.9 µM in test [2] (setting [6]); 21 ± 3.5 µM in test [3]; 50.3 ± 9.4 µM in test [4]; 45.4 ± 7.9 µM in test [5]. In addition, in test [2] (setting [7]), the “SI (promastigotes) = selectivity index” value stood at 1.3. For the same molecule, the “SI = selectivity index (Vero/T. gondii)” value in test [3] amounted to 0.92.

As for `CC(C)c1cccc(C(C)C/C=N/NC(=O)c2ccccc2F)c1` (stereo not drawn) [Compound 4d, N′-3-(3-Isopropylphenyl)butanylidene-2-fluorobenzoylhydrazide], the IC50 in test [1], in test [2] (setting [6]), in test [3], in test [4] and in test [5] was over 61.3 µM in each case.
